Measurements reported in PubChem BioAssay (NCI).
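Exposure lasted 48 hours, with cells grown in 96-well plates and compounds tested at five concentrations. Abbreviation: GI50, concentration required for 50% inhibition of growth. TGI marks complete inhibition of growth.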

Tests used:
Assay in all cases: growth of human tumour cells (NCI), 48 h
[1] = test system: 786-0 renal
[2] = test system: ACHN renal
[3] = test system: HOP-92 NSCLC
[4] = test system: LOX IMVI melanoma
[5] = test system: NCI-H226 lung
[6] = test system: SF-539 CNS
[7] = test system: SK-MEL-28 melanoma
[8] = test system: TK-10 renal
[9] = test system: U251 CNS
[10] = test system: UACC-62 melanoma

Row | SMILES | TGI [1] [µM] | TGI [2] [µM] | TGI [3] [µM] | TGI [4] [µM] | TGI [5] [µM] | TGI [6] [µM] | TGI [7] [µM] | TGI [8] [µM] | TGI [9] [µM] | TGI [10] [µM] | GI50 [2] [µM] | GI50 [4] [µM] | GI50 [7] [µM] | GI50 [10] [µM]
1 | Clc1ccc2oc(CCc3ccccc3)nc2c1 | > 100 | > 100 | > 100 | > 100 | > 100 | > 100 | > 100 | > 100 | > 100 | > 100 |  |  |  | 
2 | CC(C)(C)OC(=O)NCCCCC(N)NC(=O)c1ccccc1 (stereo not given) | > 100 | > 100 | > 100 | > 100 | > 100 | > 100 | > 100 | > 100 | > 100 | > 100 |  |  |  | 
3 | CC(C)/C(Cl)=N/OC(=O)Nc1ccc(Cl)c(Cl)c1 | 3.46 | 3.72 | 3.2 | 3.16 | 32.2 | 28.9 | 8.5 | 10.9 | 43.8 | 26.5 |  |  |  | 
4 | COc1cc(Oc2nc3ccc(C(F)(F)F)cc3nc2-c2ccccc2)cc(OC)c1OC | 12.7 | 40.6 | 45.7 | > 100 | > 100 | 60.8 | > 100 | 69.2 | 28.5 | 31.7 |  |  |  | 
5 | O=C1N[C@@H]2C(=C[C@H](O)[C@@H](O)[C@H]2O)c2cc3c(c(O)c21)OCO3 |  |  | 0.272 | 0.065 | 0.0876 | 0.0486 | 0.0944 |  | 0.394 | 0.0587 |  |  |  | 
6 | C=C(C)[C@@H]1CC[C@]2(C(=O)OC)CC[C@]3(C)[C@H](CC[C@@H]4[C@@]5(C)CC[C@H](O)C(C)(C)[C@@H]5CC[C@]43C)[C@@H]12 | 45.9 | 32.9 | 41.3 | 34.6 | 44.4 | 34.9 | 47.2 |  | 35.8 |  |  |  |  | 
7 | CN(C)CCNC(=O)c1cccc2c(NC(CCC(N)=O)C(=O)O)c3ccccc3nc12 (stereo not given) | > 100 | 18.8 | > 100 | 35.6 | 46.6 | 21.7 | 38.1 | > 100 | > 100 | > 100 |  |  |  | 
8 | COc1cccc(C2c3cc4c(cc3OC3COC(=O)C32)OCO4)c1OC (stereo not given) | > 100 | > 100 | > 100 | > 100 | > 100 | > 100 | > 100 | > 100 |  | > 100 |  |  |  | 
9 | CSc1c(C#N)c(N)n(-c2ccc(Cl)cc2)c(=O)c1C#N | > 100 |  | > 100 | > 100 | > 100 | > 100 | > 100 | > 100 | > 100 | > 100 |  |  |  | 
10 | COc1ccc2c3c1O[C@H](c1ccc(O)cc1)[C@H]3[N+](C)(C)CC2 | > 100 | > 100 | > 100 | > 100 | > 100 | > 100 | > 100 | > 100 | > 100 | > 100 |  |  |  | 
11 | C[N+](C)(C)c1ncnc2c1ncn2C1CCCO1 (stereo not given) | > 100 | > 100 | > 100 |  | > 100 | > 100 | > 100 | > 100 | > 100 | > 100 |  |  |  | 
12 | COc1ccc(C2=NOC(N)(c3ccc(OC)cc3)C2)cc1 (stereo not given) | > 100 | > 100 | > 100 | > 100 | > 100 | > 100 | > 100 | > 100 | > 100 | > 100 |  |  |  | 
13 | CCOC(=O)c1c[nH]c2ccc3c(c2c1=O)S(=O)(=O)CC3 (tested in a mixture with another compound) |  |  | > 100 | > 100 | > 100 | > 100 | > 100 |  | > 100 | > 100 |  |  |  | 
14 | CN(C)CCc1c2c(nc3ccccc13)C(=O)c1cccnc1C2=O | 0.759 | 1.39 | 8.76 | 0.13 | 0.473 | 0.671 | 1.76 | 2.94 | 4.3 | 0.738 |  |  |  | 
15 | CCCn1c(=O)c(N2CCN(c3ccccc3)CC2)nc2sc3ccccc3c21 | > 100 | > 100 | > 100 | > 100 |  | > 100 | > 100 | > 100 | > 100 | > 100 |  |  |  | 
16 | O=c1[nH]c(Nc2nc3ccccc3[nH]2)nc(O)c1Cc1ccccc1 | > 100 | > 100 | 63 |  | > 100 | > 100 | > 100 | > 100 | > 100 | > 100 |  |  |  | 
17 | COc1cc(O)c2c(=O)c(OC)c(-c3ccc(OC)c(OC)c3)oc2c1 |  | > 100 |  | > 100 |  |  | 51.6 | > 100 | > 100 | > 100 | > 100 | > 100 | 18 | > 100
18 | CN1CCN(c2ccc3c(c2)NCC(=O)N3)CC1 | > 100 | > 100 | > 100 | > 100 | > 100 |  | > 100 | > 100 | > 100 | > 100 |  |  |  | 
19 | CN1CCN(P2(=S)Oc3ccc4ccccc4c3-c3c(ccc4ccccc34)O2)CC1 |  |  | 59.7 | 39.6 | > 92.3 | 42.6 | > 100 |  | > 100 | > 100 |  |  |  | 
20 | Cn1c(=O)n2n(c1=O)C(C)(C13CC4CC(CC(C4)C1)C3)C13CC4CC(CC1C4)CC23 (stereo not given) |  | > 100 | > 100 |  | > 100 | > 100 | > 100 | > 100 | > 100 | > 100 |  |  |  | 
21 | O=C(O)c1ccccc1N=Nc1c(O)c(S(=O)(=O)O)cc2cc(S(=O)(=O)O)ccc12 | > 100 | > 100 | > 100 | > 100 |  | > 100 | > 100 | > 100 | > 100 | > 100 |  |  |  | 
22 | O=C1Cc2c([nH]c3ccc(C(=O)O)cc23)-c2ccccc2N1 | > 100 | > 100 | > 100 | > 100 | > 100 | > 100 | > 100 | > 100 | > 100 | > 100 |  |  |  | 
